Here are results for one compound from patent US12595259B2, “Aminopyridine compound” (ZHUHAI UNITED LABORATORIES CO., LTD., priority 2020, dated 2026).

The nature of this assay: Experiment of aldehyde-trapping ability in vitro. The note with it: for percentage content of the complex product (HPLC, 254 nm): nonanal 1.0 eq, compound 1.0 eq, 20 to 23° C. The protocol: Objective: xerophthalmia is caused by inflammations inside the eye, and these inflammations would produce some aldehydes in vivo. If these aldehydes are not eliminated in time, the symptoms of inflammations would be accelerated and worsen the xerophthalmia. In this experiment, by simulating the in vivo environment, a relatively preferred compound was selected according to the complexing ability of the drug and the aldehyde in vivo.
Process: sulfobutyl-B-cyclodextrin (310 mg) was dissolved in phosphate buffer (1.25 mL) to prepare a solution.
Nonanal (5.0 mg, 32 μmol, 1.0 eq) and glyceryl trioleate (300 mg) were added into a reaction flask at room temperature. After the above prepared solution was added thereto, linoleic acid (300 mg) was then added thereto, and finally a dimethyl sulfoxide (0.15 mL) solution containing the compound of the present disclosure (32 μmol, 1.0 eq) was added thereto. The reaction solution was reacted at 20 to 23° C.
After stirring and reacting for 10 minutes, 100 minutes, 200 minutes, and 300 minutes, respectively, the reaction solution was allowed to stand for 2 minutes, layered and then sampled for high performance liquid detection.
Sampling method: 25 μL of the upper emulsion layer and 50 μL of the lower aqueous phase were sampled with a pipette, and diluted with 1 mL of methanol.
Nonanal has weak ultraviolet absorption at a wavelength of 254 nm, and has little influence on the content of complexation product as a whole. Therefore, the percentage content of the complexed compound at 254 nm in high performance liquid phase was compared to observe the ability of the compound to trap and complex aldehyde.
The HPLC analysis method is shown in Table 1 below, which is XBRIGE 2.5 μm, 3.0*100 mm 5-95CD_XBEH_12 min_0.8.lcm

`CC(C)(O)c1ncc(-c2nc(C(C)(C)O)c(N)s2)cc1N` [Compound 1]: for the setting “complex product content against time, 10 to 300 minutes”, the “Area under the curve AUC” value is 1874 min. conversion rate. The compound further displayed a Slope (linear fit of complex product content against time, 10 to 300 minutes) of 0.0394. Further, the “percentage content of the complex product (HPLC, 254 nm)” value came out at 1.095 (reaction time 10 minutes), 4.751 (reaction time 100 minutes), 8.764 (reaction time 200 minutes) and 12.496 (reaction time 300 minutes).
